Results: patent US9434727B2, “Substituted 4-phenylpiperidines, their preparation and use” (THE TRUSTEES OF COLUMBIA UNIVERSITY IN THE CITY OF NEW YORK, priority 2014, dated 2016)

Key:
RBP4 = RBP4 (Homo sapiens (Human), UniProt P02753); assay: Scintillation proximity (SPA) RBP4 binding assay; details: 10 nM 3H-Retinol, 50 nM biotinylated RBP4
Method: Scintillation Proximity RBP4 Binding Assay
Untagged human RBP4 purified from urine of tubular proteinuria patients was purchased from Fitzgerald Industries International. It was biotinylated using the EZ-Link Sulfo-NHS-LC-Biotinylation kit from Pierce following the manufacturer's recommendations. Binding experiments were performed in 96-well plates (OptiPlate, PerkinElmer) in a final assay volume of 100 μl per well in SPA buffer (IX PBS, pH 7.4, 1 mM EDTA, 0.1% BSA, 0.5% CHAPS). The reaction mix contained 10 nM ^3H-Retinol (48.7 Ci/mmol; PerkinElmer), 0.3 mg/well Streptavidin-PVT beads, 50 nM biotinylated RBP4 and a test compound. Nonspecific binding was determined in the presence of 20 μM of unlabeled retinol. The reaction mix was assembled in the dark under dim red light. The plates were sealed with clear tape (TopSeal-A: 96-well microplate, PerkinElmer), wrapped in the aluminum foil, and allowed to equilibrate 6 hours at room temperature followed by overnight incubation at +4° C. Radiocounts were measured using a TopCount NXT counter (Packard Instrument Company).

RBP4-TTR interaction = RBP4-TTR interaction (Homo sapiens (Human), UniProt P02753); assay: TR-FRET (HTRF) assay for retinol-induced RBP4-TTR interaction; type: biochemical; details: in the presence of 1 μM retinol; read-out: HTRF assay for antagonists of RBP4-TTR interaction: IC50
From the text: TR-FRET assay for retinol-induced RBP4-TTR interaction Binding of a desired RBP4 antagonist displaces retinol and induces hindrance for RBP4-TTR interaction resulting in the decreased FRET signal (FIG. 7). Bacterially expressed MBP-RBP4 and untagged TTR were used in this assay. […] Following cell lysis, recombinant RBP4 was purified from the soluble fraction using the ACTA FPLC system (GE Healthcare) equipped with the 5-ml the MBP Trap HP column. Human untagged TTR was purchased from Calbiochem. Untagged TTR was labeled directly with Eu^3+ Cryptate-NHS using the HTRF Cryptate Labeling kit from CisBio following the manufacturer's recommendations. HTRF assay was performed in white low volume 384 well plates (Greiner-Bio) in a final assay volume of 16 μl per well. The reaction buffer contained 10 mM Tris-HCl pH 7.5, 1 mM DTT, 0.05% NP-40, 0.05% Prionex, 6% glycerol, and 400 mM KF. […] Titration of test compounds in this assay was conducted in the presence of 1 μM retinol. All reactions were assembled in the dark under dim red light and incubated overnight at +4° C. wrapped in aluminum foil. TR-FRET signal was measured in the SpectraMax M5e Multimode Plate Reader (Molecular Device). […] The TR-FRET signal was expressed as the ratio of fluorescence intensity: Flu665/Flu620×10,000.

SMILES	IC50 (RBP4)	IC50 (RBP4-TTR interaction)
CC(=O)N1CCc2c(C(=O)N3CCC(c4cc(F)ccc4C(F)(F)F)CC3)n[nH]c2C1 [Compound 140, 1-(3-(4-(5-fluoro-2-(trifluoromethyl)phenyl)piperidine-1-carbonyl)-4,5-dihydro-1H-pyrazolo[3,4-c]pyridin-6(7H)-yl)ethanone]	9.28 nM	21.9 nM
CC(=O)N1CCc2c(C(=O)N3CCC(c4cc(F)cc(F)c4C(F)(F)F)CC3)n[nH]c2C1 [Compound 131, 1-(3-(4-(3,5-Difluoro-2-(trifluoromethyl)phenyl)piperidine-1-carbonyl)-4,5-dihydro-1H-pyrazolo[3,4-c]pyridin-6(7H)-yl)ethanone]	6.36 nM	10.9 nM
CC(=O)N1CCc2c(C(=O)N3CCC(c4cc(F)ccc4Cl)CC3)n[nH]c2C1 [Compound 143, 1-(3-(4-(2-chloro-5-fluorophenyl)piperidine-1-carbonyl)-4,5-dihydro-1H-pyrazolo[3,4-c]pyridin-6(7H)-yl)ethanone]	8.83 nM	52.3 nM
COC(=O)N1CCc2c(C(=O)N3CCC(c4cccc(F)c4Cl)CC3)n[nH]c2C1 [Compound 147, Methyl 3-(4-(2-chloro-3-fluorophenyl)piperidine-1-carbonyl)-4,5-dihydro-1H-pyrazolo[3,4-c]pyridine-6(7H)-carboxylate]	17.1 nM	25.5 nM
O=C(O)CN1CCc2c(C(=O)N3CCC(c4ccc(F)c(F)c4C(F)(F)F)CC3)n[nH]c2C1 [Compound 115, 2-(3-(4-(3,4-Difluoro-2-(trifluoromethyl)phenyl)piperidine-1-carbonyl)-1,4,5,7-tetrahydro-6H-pyrazolo[3,4-c]pyridin-6-yl)acetic acid]	18.9 nM	109 nM
CS(=O)(=O)N1CCc2[nH]nc(C(=O)N3CCC(c4cc(C(F)(F)F)cc(C(F)(F)F)c4)CC3)c2C1 [Compound 154, (4-(3,5-bis(trifluoromethyl)phenyl)piperidin-1-yl)(5-(methylsulfonyl)-4,5,6,7-tetrahydro-1H-pyrazolo[4,3-c]pyridin-3-yl)methanone]	150 nM	385 nM
CC(=O)N1CCc2c(C(=O)N3CCC(c4cccc(F)c4C(F)(F)F)CC3)n[nH]c2C1 [Compound 63, 1-(3-(4-(3-Fluoro-2-(trifluoromethyl)phenyl)piperidine-1-carbonyl)-4,5-dihydro-1H-pyrazolo[3,4-c]pyridin-6(7H)-yl)ethanone]	4.46 nM	16 nM
CC(=O)N1CCc2c(C(=O)N3CCC(c4c(F)cccc4C(F)(F)F)CC3)n[nH]c2C1 [Compound 156, 1-(3-(4-(2-fluoro-6-(trifluoromethyl)phenyl)piperidine-1-carbonyl)-4,5-dihydro-1H-pyrazolo[3,4-c]pyridin-6 (7H)-yl) ethanone]	19.4 nM	248 nM
O=C(c1n[nH]c2c1CN(CCC(F)(F)F)C2)N1CCC(c2ccc(F)c(F)c2C(F)(F)F)CC1 [Compound 108, (4-(3,4-difluoro-2(trifluoromethyl)phenyl)piperidin-1-yl)(5-(3,3,3-trifluoropropyl)-1,4,5,6-tetrahydropyrrolo[3,4-c]pyrazol-3-yl)methanone]	25.2 nM	49.5 nM
N#Cc1ccc2nnc(C(=O)N3CCC(c4cccc(F)c4Cl)CC3)n2c1 [Compound 152, 3-(4-(2-chloro-3-fluorophenyl)piperidine-1-carbonyl)-[1,2,4]triazolo[4,3-a]pyridine-6-carbonitrile]	3.1 nM	27.8 nM
COCCN1CCc2[nH]nc(C(=O)N3CCC(c4ccc(F)c(F)c4C(F)(F)F)CC3)c2C1 [Compound 94, (4-(3,4-difluoro-2-(trifluoromethyl)phenyl)piperidin-1-yl)(5-(2-methoxyethyl)-4,5,6,7-tetrahydro-1H-pyrazolo[4,3-c]pyridin-3-yl)methanone]	6.96 nM	49.9 nM
CCC(=O)N1CCc2c(C(=O)N3CCC(c4ccc(F)c(F)c4C(F)(F)F)CC3)n[nH]c2C1 [Compound 122, 1-(3-(4-(3,4-Difluoro-2-(trifluoromethyl)phenyl)piperidine-1-carbonyl)-1,4,5,7-tetrahydro-6H-pyrazolo[3,4-c]pyridin-6-yl)propan-1-one]	17 nM	27.7 nM
CNC(=O)N1Cc2[nH]nc(C(=O)N3CCC(c4ccc(F)c(F)c4C(F)(F)F)CC3)c2C1 [Compound 100, 3-(4-(3,4-difluoro-2-(trifluoromethyl)phenyl)piperidine-1-carbonyl)-N-methyl-4,6-dihydropyrrolo[3,4-c]pyrazole-5(1H)-carboxamide]	19.6 nM	30.3 nM
CNC(=O)N1CCc2[nH]nc(C(=O)N3CCC(c4ccc(F)c(F)c4C(F)(F)F)CC3)c2C1 [Compound 92, 3-(4-(3,4-difluoro-2-(trifluoromethyl)phenyl)piperidine-1-carbonyl)-N-methyl-6,7-dihydro-1H-pyrazolo[4,3-c]pyridine-5(4H)-carboxamide]	10.2 nM	76.6 nM
CC(C)(C)CN1CCc2[nH]nc(C(=O)N3CCC(c4ccc(F)c(F)c4C(F)(F)F)CC3)c2C1 [Compound 90, (4-(3,4-difluoro-2-(trifluoromethyl)phenyl)piperidin-1-yl)(5-neopentyl-4,5,6,7-tetrahydro-1H-pyrazolo[4,3-c]pyridin-3-yl)methanone methanone]	14.4 nM	42.9 nM
O=C(c1n[nH]c2c1CCN(CC1CC1)C2)N1CCC(c2cccc(F)c2Cl)CC1 [Compound 146, (4-(2-chloro-3-(fluorophenyl)piperidin-1-yl)(6-cyclopropylmethyl)-4,5,6,7-tetrahydro-1H-pyrazolo[3,4-c]pyridine-3-yl)methanone]	15.9 nM	36.5 nM
O=C(c1cccnc1)N1Cc2[nH]nc(C(=O)N3CCC(c4ccc(F)c(F)c4C(F)(F)F)CC3)c2C1 [Compound 104, (4-(3,4-difluoro-2-(trifluoromethyl)phenyl)piperidin-1-yl)(5-nicotinoyl-1,4,5,6-tetrahydropyrrolo[3,4-c]pyrazol-3-yl)methanone]	18.9 nM	21.8 nM
O=C(c1n[nH]c2c1CCN(C1COC1)C2)N1CCC(c2ccc(F)c(F)c2C(F)(F)F)CC1 [Compound 117, (4-(3,4-Difluoro-2-(trifluoromethyl)phenyl)piperidin-1-yl)(6-(oxetan-3-yl)-4,5,6,7-tetrahydro-1H-pyrazolo[3,4-c]pyridin-3-yl)methanone]	5.48 nM	37.7 nM
CCN1CCc2c(C(=O)N3CCC(c4cccc(F)c4C(F)(F)F)CC3)n[nH]c2C1 [Compound 75, (6-Ethyl-4,5,6,7-tetrahydro-1H-pyrazolo[3,4-c]pyridin-3-yl)(4-(3-fluoro-2-(trifluormethyl)phenyl)piperidin-1-yl)methanone]	6.95 nM	34 nM
O=C(c1n[nH]c2c1CN(CC(F)(F)F)C2)N1CCC(c2ccc(F)c(F)c2C(F)(F)F)CC1 [Compound 107]	23.4 nM	77 nM
CNC(=O)N1CCc2[nH]nc(C(=O)N3CCC(c4cccc(F)c4C(F)(F)F)CC3)c2C1 [Compound 114, 3-(4-(3-Fluoro-2-(trifluoromethyl)phenyl)piperidine-1-carbonyl)-N-methyl-6,7-dihydro-1H-pyrazolo[4,3-c]pyridine-5(4)-carboxamide]	10.3 nM	40.8 nM
N#Cc1ccc2nnc(C(=O)N3CCC(c4cccc(Cl)c4C(F)(F)F)CC3)n2c1 [Compound 162, 3-(4-(3-Chloro-2-(trifluoromethyl)phenyl)piperidine-1-carbonyl)-[1,2,4]triazolo[4,3-a]pyridine-6-carbonitrile]	4.82 nM	10.7 nM
N#Cc1ccc2nnc(C(=O)N3CCC(c4cc(F)cc(F)c4C(F)(F)F)CC3)n2c1 [Compound 132, 3-(4-(3,5-Difluoro-2-(trifluoromethyl)phenyl)piperidine-1-carbonyl)-[1,2,4]triazolo[4,3-a]pyridine-6-carbonitrile]	6.75 nM	10.5 nM
CC(=O)N1CCc2c(C(=O)N3CCC(c4cccc(F)c4Cl)CC3)n[nH]c2C1 [Compound 150, 1-(3-(4-(2-chloro-3-fluorophenyl)piperidine-1-carbonyl)-4,5-dihydro-1H-pyrazolo[3,4-c]pyridin-6(7H)-yl)ethanone]	4.84 nM	23.7 nM
